Values of other authors as cited in US9403784B1, “Fumarate compounds, pharmaceutical compositions thereof, and methods of use” (priority 2015, dated 2016).

In the case of COC(=O)/C=C/C(=O)OC [DMF, dimethylfumarate], the aqueous solubility is listed as “poor aqueous solubility”.
